Results on 5 compounds are retold here after patent US8926083B2, “Polymerizable ink composition, ink cartridge, and inkjet printer” (Ricoh Company, Ltd., priority 2012, dated 2015).

Series [1] can be described thus: Skin sensitization test according to Local Lymph Node Assay (LLNA) method, Stimulation Index (SI). The conditions noted are these: LLNA method (OECD test guideline 429), SI less than 3 = no skin sensitization problem.
For series [2] the following is noted: statement of the material safety data sheet; cited from earlier work.
For series [3] the following is noted: in vivo.

Where two headings read alike, the source gives them in different places.

In the case of `C=C(C)C(=O)OCCCCOC(=O)C(=C)C` [1,4-butane diol dimethacrylate], the SI value in series [1] is 2.6):.

As to `C=CC(=O)OCC(CC)(COC(=O)C=C)COC(=O)C=C` [Trimethylol propane triacrylate (M-309), Trimethylol propane triacrylate], the “skin sensitization as mentioned in MSDS” value in series [2] is listed as “Toagosei Company, Limited, skin sensitization causing”.

For the compound `C=CC(=O)OCC(CC)(COC(=O)C=C)COC(=O)C=C` [Trimethylol propane triacrylate (SR-350), Trimethylol propane triacrylate], the SI value in series [1] is 1.9):.

Regarding “Diacrylate of caprolactone-modified hydroxy pivalic acid neopentyl glyco”, the SI value entry in series [1] is given as “manufactured by Nippon Kayaku Co., Ltd., SI Value = 0.9):”. In the case of “Polypropylene glycol (n = 9) dimethacrylate”, the SI value in series [3] is recorded as 1.3):.
